From patent publication US20260124170A1, “PHARMACEUTICAL COMPOSITION COMPRISING METABOLITE OF ENAVOGLIFLOZIN, AND USE THEREOF” (DAEWOONG PHARMACEUTICAL CO., LTD., priority 2022, published 2026)
“And” between values parts separate entries of the source, which are not always exact repeats. Identical values can stand only once. Like-named read-outs stand apart in the source and are kept apart here.

Columns and labels:
SGLT1 [1] = molecular target: T1, SGLT1 (Homo sapiens, UniProt P13866); test: Inhibition of [14C]AMG uptake in SGLT1-overexpressing CHO cells; format: cell-based; conditions: IC50 (nM) SGLT1 mean ± SD (n = 3), 10 μM [14C]AMG, 2 h, 37° C.
T1 construct: expressed in transfected cells
T1 sequence (P13866 1-664): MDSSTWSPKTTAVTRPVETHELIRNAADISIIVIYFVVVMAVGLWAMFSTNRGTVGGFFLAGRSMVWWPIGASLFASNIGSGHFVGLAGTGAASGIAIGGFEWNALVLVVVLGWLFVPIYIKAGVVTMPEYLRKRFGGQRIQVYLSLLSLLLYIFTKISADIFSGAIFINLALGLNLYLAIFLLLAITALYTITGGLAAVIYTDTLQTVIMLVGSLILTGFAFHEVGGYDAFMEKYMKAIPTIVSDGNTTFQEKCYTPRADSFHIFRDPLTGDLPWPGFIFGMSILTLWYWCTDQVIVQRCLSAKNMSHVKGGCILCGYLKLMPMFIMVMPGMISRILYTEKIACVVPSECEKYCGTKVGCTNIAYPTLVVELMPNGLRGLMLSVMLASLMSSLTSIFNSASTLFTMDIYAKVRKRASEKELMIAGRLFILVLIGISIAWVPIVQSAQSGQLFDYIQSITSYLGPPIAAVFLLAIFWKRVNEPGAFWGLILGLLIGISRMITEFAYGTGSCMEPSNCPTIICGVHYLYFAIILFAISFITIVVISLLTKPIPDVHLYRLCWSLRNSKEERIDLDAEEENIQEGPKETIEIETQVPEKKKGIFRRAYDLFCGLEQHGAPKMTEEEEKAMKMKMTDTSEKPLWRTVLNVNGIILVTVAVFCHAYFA
Protocol: An SGLT1-overexpressing cell line (CHO-SGLT1 stable cells) and mock cells (CHO-mock cells) were cultured to reach 80% confluency, and then the cells were seeded in 96-well plates at 1×10^5 cells/well.
After 24 hours, the medium was removed, and a pre-incubation buffer [10 mM hydroxyethylpiperazine ethane sulfonic acid (HEPES), 5 mM Tris, 140 mM choline chloride, 2 mM KCl, 1 mM CaCl2), 1 mM MgCl2, pH 7.4] was added, and the cells were cultured for one hour.
After one hour, the pre-incubation buffer was removed, and an incubation buffer [10 mM HEPES, 5 mM Tris, 140 mM NaCl, 2 mM KCl, 1 mM CaCl2), 1 mM MgCl2, pH 7.4] containing 10 μM [^14C] methyl α-D-glucopyranoside (AMG), a substrate of SGLT1, and inhibitory evaluation substances at various concentrations was added and allowed to react in a thermo micro mixer at 37° C. for two hours.
After a preset time, the cells were washed twice with 200 μL of ice-cold washing buffer [10 mM HEPES, 5 mM Tris, 140 mM choline chloride, 2 mM KCl, 1 mM CaCl2), 1 mM MgCl2, 100 mM AMG, pH 7.4].
After removing the medium, 40 μL of 10% sodium dodecyl sulfate (SDS) solution was added to lyse the cells, and then the samples were transferred to a measurement plate of a liquid scintillation counter, and 150 μL of OptiPhase Supermix®, an isotope measurement cocktail solution, was added, and the cells were incubated overnight to ensure that the cell solution was homogeneously mixed with the cocktail solution.
[^14C]AMG in the samples was measured using the liquid scintillation counter.
At this time, the inhibitory effect Sigmoid Emax model was used, and the WinNonlin program (ver. 2.0) was utilized. All data values were expressed as the mean±standard deviation (SD) of three independent experiments.

SGLT1 [2] = molecular target: T1, SGLT1; test: SGLT1 inhibition with varied substrate AMG concentration (Dixon / L-B plot); format: cell-based; conditions: for Inhibition mechanism, SGLT1: CHO-SGLT1, varied AMG concentration; for Ki: from slope of L-B plot, CHO-SGLT1
Protocol: From these, the inhibition mechanism was confirmed, and the inhibition constant was calculated.

SGLT2 = molecular target: T2, SGLT2 (Homo sapiens, UniProt P31639); test: Change in SGLT2 inhibition according to drug pretreatment time (CHO-SGLT2); format: cell-based; conditions: for IC50: CHO-SGLT2; for Change in SGLT2 inhibition as exposure time increased: pretreatment 0, 1, 2 h, one-way ANOVA
T2 construct: expressed in transfected cells
T2 sequence (P31639 1-672): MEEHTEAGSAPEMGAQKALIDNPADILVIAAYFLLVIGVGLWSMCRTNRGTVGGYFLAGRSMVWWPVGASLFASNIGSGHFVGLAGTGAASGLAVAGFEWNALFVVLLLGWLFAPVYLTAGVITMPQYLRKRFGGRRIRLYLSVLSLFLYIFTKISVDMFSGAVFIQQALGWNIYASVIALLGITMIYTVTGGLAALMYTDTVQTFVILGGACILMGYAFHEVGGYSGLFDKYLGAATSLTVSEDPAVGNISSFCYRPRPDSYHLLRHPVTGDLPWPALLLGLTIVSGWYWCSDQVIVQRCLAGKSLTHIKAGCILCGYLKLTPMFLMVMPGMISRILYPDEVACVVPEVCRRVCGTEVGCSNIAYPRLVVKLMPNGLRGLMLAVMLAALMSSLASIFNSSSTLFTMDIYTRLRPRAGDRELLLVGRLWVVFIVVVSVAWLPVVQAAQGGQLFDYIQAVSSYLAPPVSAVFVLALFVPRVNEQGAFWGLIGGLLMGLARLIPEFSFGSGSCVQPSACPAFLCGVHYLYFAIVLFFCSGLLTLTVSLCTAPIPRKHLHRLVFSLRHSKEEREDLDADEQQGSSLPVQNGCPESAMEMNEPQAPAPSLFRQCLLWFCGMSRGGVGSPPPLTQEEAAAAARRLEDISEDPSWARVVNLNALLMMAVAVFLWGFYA
Description: All data values are expressed as the mean±SD of […].

human hepatocytes = conditions: cited from earlier work
[3] = IC50 according to pretreatment time (nM), SGLT2, 1 h, 1 h pretreatment in sodium-free buffer
[4] = IC50 according to pretreatment time (nM), SGLT2, 2 h, 2 h pretreatment in sodium-free buffer
[5] = no pretreatment, read-out: IC50 according to pretreatment time (nM), SGLT2, 0 h

| IC50 (SGLT1 [1]) | Inhibition mechanism, SGLT1 (SGLT1 [2]) | Ki (SGLT1 [2]) [nM] | IC50 (SGLT2; [3]) [nM] | IC50 (SGLT2; [4]) [nM] | IC50 (SGLT2; [5]) [nM] | Change in SGLT2 inhibition as exposure time increased (SGLT2) | Compound | Number of metabolites produced in human hepatocytes (human hepatocytes; M1, M2, M3, U1, U2) | Enzymes catalyzing formation of the metabolite (human hepatocytes) |
| --- | --- | --- | --- | --- | --- | --- | --- | --- | --- |
| 861 ± 59.4 nM | Competitive inhibition | 495 | 0.285 ± 0.188 | 0.519 ± 0.222 | 0.388 ± 0.119 | did not increase or significantly change | OC[C@H]1O[C@@H](c2cc(Cc3ccc(C4CC4)cc3)c(Cl)c3c2CCO3)[C@H](O)[C@@H](O)[C@@H]1O [Enavogliflozin, (2S,3R,4R,5S,6R)-2-(7-chloro-6 (4-cyclopropylbenzyl)-2,3-dihydrobenzofuran-4-yl)-6-(hydroxymethyl)tetrahydro-2H-pyran-3,4,5-triol] | five | – |
| ~28.4 nM and 28.4 nM | Competitive inhibition | 84.8 | 5.24 ± 1.1 | 9.95 ± 3.14 | 8.44 ± 0.77 | did not increase or significantly change | OC[C@H]1O[C@@H](c2cc(Cc3ccc(C4CC4)cc3)c(Cl)c3c2CC(O)O3)[C@H](O)[C@@H](O)[C@@H]1O (stereo partly drawn) [M1, (2S,3R,4R,5S,6R)-2-(7-chloro-6-(4-cyclopropylbenzyl)-2-hydroxy-2,3-dihydrobenzofuran-4-yl)-6-(hydroxymethyl)tetrahydro-2H-pyran-3,4,5-triol] | – | CYP3A4 and CYP2C19 |
| 1220 ± 165 nM | Competitive inhibition | 1870 | 3.63 ± 0.83 | 3.24 ± 0.81 | 2.75 ± 0.36 | did not increase or significantly change | OC[C@H]1O[C@@H](c2cc(Cc3ccc(C4(O)CC4)cc3)c(Cl)c3c2CCO3)[C@H](O)[C@@H](O)[C@@H]1O [M2, (2S,3R,4R,5S,6R)-2-(7-chloro-6-(4-(1-hydroxycyclopropyl)benzyl)-2,3-dihydrobenzofuran-4-yl)-6-(hydroxymethyl)tetrahydro-2H-pyran-3,4,5-triol] | – | CYP3A4 and CYP2C19 |
